Results on six molecules are retold here after PMC12648443, “Modifications of NU-9, a potent protein aggregation inhibitor. Properties and activity in a cellular model of amyotrophic lateral sclerosis” (Bioorganic chemistry, 2025).

Data set [1] addresses T1, P-gp (Homo sapiens, UniProt P08183).
T1 construct: host or cells: MDCK-MDR1 (Madin Darby canine kidney cells carrying the MDR1 gene)
Kind of data set: MDCK-MDR1 bidirectional permeability / efflux assay. The class given is in vitro ADME. The following applies: MDCK-MRD1, absence of zosuquidar. On the procedure:
The assay was carried out at Sai Life Sciences. Stock solutions of 6, 20, assay controls loperamide, atenolol, and propanolol (4 and 20 mM), and P-gp inhibitor zosuquidar (10 mM) were prepared in DMSO. Then the stock solutions from each test compound were diluted in HBSS buffer containing 10 mM HEPES to obtain the assay working solutions without the P-gp inhibitor at 2 and 10 μM (0.1 % DMSO v/v). Into working solutions containing zosuquidar (5 μM) were individually diluted 6, 20, and loperamide to obtain working solutions containing the test compounds at 2 or 10 μM and zosuquidar at 5 μM.
The MDCK-MDR1 (Madin Darby canine kidney - Multidrug Resistance gene-1) cells were cultured in DMEM media supplemented with 10 % FBS and antibiotics. For transport studies, cells were seeded into PET trans filter membranes (Millipore #PSRP010R5; 1.0 μm pore size) at a density of 1.2 × 10^5 cells/well and colchicine was added to the flasks and plates according to their volume. After 24 h, the media were replaced by fresh media and then changed every 2 days over 8 days. The media were removed from the wells of the basal and apical compartments of the plates, and a solution of HBSS with or without zosuquidar (5 μM) was added to the apical (400 μL) and basal (800 μL) sides of the plates. The plates were pre-incubated at 37 °C for 30 min in humidified air with 5 % CO2. The TTER (Transepithelial-Transendothelial Electrical Resistance) value for each well was recorded (assay TEER >83 Ω.cm^2). The buffer was removed from both compartments, and for the apical to basal direction transport determination, the apical compartment was loaded with 400 μL of the working solutions of the tested compounds or controls (2 or 10 μM) in the presence or absence of zosuquidar (5 μM), and the basal compartment was loaded with 800 μL of HBSS (0.1 % DMSO v/v). For the basal to apical direction transport determination, the compartments were loaded in their reverse order. The assay was performed in duplicate for the two transport directions [apical to basolateral (A → B) and basolateral to apical (B → A)]. After 120 min, 100 μL samples from both the apical and basal sides of the plate were transferred to new 96-deep well plates, quenched with acetonitrile containing an internal standard, vortexed for 5 min, and then centrifuged at 4000 rpm for 10 min. The same procedure was used to prepare a 96-deep well plate containing non-assayed working solutions (t = 0 concentrations). After centrifugation, 100 μL of the supernatant of each well was transferred to a new 96-well plate, and the samples were analyzed by LC-MS/MS.
For each experiment, the apparent permeability (Papp) for each direction and the efflux ratio (ER) were determined by the equations: Papp(cm/s)=(dQ/dt)/A×Co
where dQ/dt is the rate of permeation of the tested compounds across the (0 and 120 min) after correcting for dilution; A is the area of the filter (0.7 cm^2); Co is the initial concentration of the compounds on the donor compartment.
Where P(B→A) is the apparent permeability of the compounds from the basal to the apical direction and P(A→B) is the apparent permeability from the apical to basal direction. Lucifer Yellow was used as a control of the assay to evaluate monolayer integrity after incubation with the working solutions of the compounds, and the results were validated if the permeability of Lucifer Yellow from the apical to the basal side after 1-h incubation was kept <2 %. The results are presented as an average of two independent experiments.

The subject of data set [2] is MG132-induced mutant SOD1 intracellular aggregation in PC12-SOD1^G85R YFP cells. Kind of data set: Protection against MG132-induced mut-SOD1 intracellular aggregation (fluorescence microscopy). The following applies: for EC50: PC12-SOD1^G85R YFP cells, 0.7 μM MG132, 72 h, Inactive = no decrease of aggregates at 10 μM vs vehicle; for loss of potency relative to NU-9: anti-aggregation EC50 compared with NU-9. The class given is cell-based. The procedure: The PC12 Tet-Off-SOD1^G85R YFP cells were cultured in DMEM media supplemented with 10 % horse serum, 5 % Tet-approved FBS, 1 % Penstrep, 1× L-glutamine, 200 μg/mL hygromycin, 100 μg/mL G418, with 1 μg/mL Doxycycline and were incubated at 37 °C in humidified air with […] until 90–95 % confluency. To induce the expression of SOD1^G85R YFP, the Doxycycline was removed at least 4 days before the experiment. To remove the Doxycycline, the media was removed, and the cells were washed 3 times with 1xPBS. The cells were then cultured in standard culture media without Doxycycline. To set up the assay, the cells were then seeded into 96-well cell culture plates (Greiner Bio-One Catalog #655090) at a concentration of 50,000 cells/well with a final volume of 100 μL/well and incubated in the CO2 incubator at 37 °C for 24 h. The media were removed from the cells and replaced with 100 μL of media containing 0.1 % DMSO or compounds, and incubated in the CO2 incubator at 37 °C for 6 h. The media were then replaced with fresh 100 μL of media containing the diluted compounds with 0.7 μM (−)-MG-132, and the plates were incubated for 72 h under culture conditions. After 72 h, the cells were stained with Hoescht 33,342 (55 μg/mL, 10 μL/well) and imaged (lex = 358, 513 nm) using a Molecular Devices ImageXpress Micro Confocal High-Content Imaging System equipped with a 40× objective. […] Image binning was set to 2. DAPI fluorescence was captured using an exposure time of 300 ms, and FITC fluorescence was captured using an exposure time of 400 ms. A 13-plane z-series was acquired for each field of view with a step size of 3 μm. For each condition, 2 sets of 9 images were generated in a 3 × 3 grid to separately image the SOD1^G85R YFP proteins and the nuclei stained with Hoescht 33,342. Image analysis was performed with MetaXpress software (Molecular Devices) using the Transfluor module. Parameters for puncta detection (aggregates) were set with a minimum pit width of 2 μm and a maximum pit width of 5 μm. Signal intensity thresholds were defined as 700 grayscale units above the local background. The analysis provided the average area of each cell that is covered by puncta (pit/cell), which are indicated by bright green spots on the SOD1^G85RYFP image set.
The assay was performed in triplicate for each condition tested, and wells containing the media with vehicle (0.1 % DMSO) or (−)-MG-132 alone were used as controls representing the minimum and maximum aggregate formation. […] The data for EC50 determination was treated with Prism and fitted using a semi-logarithmic curve for determination of the EC50 values of NU9 and compounds 4, 6, 20 and 21.

The nature of data set [3]: Parallel artificial membrane permeability assay - blood brain barrier (PAMPA-BBB). Conditions: for Log Pe: High permeability LogPe > −5.33, No permeability LogPe < −6.14; for Papp at 18 h, 250 μM: pig, PAMPA, pH 7.5. In general terms: PAMPA measures passive passage across an artificial lipid membrane.
Protocol: A solution of 1 × PBS (pH 7.5) was initially prepared by the dilution of a commercially available 10 × PBS solution. […] A solution of porcine brain lipid (PBL) (20 mg/mL in dodecane) was prepared, and 4 μL of this solution was used to coat the filters on the bottom of the PAMPA donor plates (Sigma Aldrich #MAIPNTR10). After air drying for 20 min, the donor plate wells were charged with 250 μL of the solutions of the test compounds or the controls. The donor plate was then placed over the acceptor plate (Sigma Aldrich #MATRNPS50), in which wells were previously filled with 1 × PBS (2 % DMSO v/v) solution. The PAMPA sandwich was closed with parafilm and incubated at 25 °C for 18 h in a humidity-saturated atmosphere with orbital agitation. […] The UV spectra (250–400 nm) of each well were acquired on a BioTek Synergy H1 MD plate reader equipped with a monochromator at room temperature.
CA(t) is the concentration of the compounds at the final time of incubation on the acceptor well; CD(0) and CD(t) are the concentration of the compounds at the initial time of incubation and at the final time of incubation on the donor well, respectively.
For data set [4], the system named is cells containing SOD1 mutations associated with ALS. On the set-up: method as in PMID 21073276, PMID 22189273, PMID 22837812. Conditions: Fig. 1, evolution of CHD series; cited from earlier work.
Data set [5] concerns cortical neurons. The arrangement: method as in PMID 22189273. The following applies: cited from earlier work.

The Papp A→B is the apparent permeability from the apical to the basolateral side of a cell layer. A word on the EC50: it is the concentration giving half of the maximal effect. As usually defined, the Papp is a coefficient for how fast a substance crosses the barrier. Lower therefore signals poor permeation.

T1 sequence (P08183 whole entry): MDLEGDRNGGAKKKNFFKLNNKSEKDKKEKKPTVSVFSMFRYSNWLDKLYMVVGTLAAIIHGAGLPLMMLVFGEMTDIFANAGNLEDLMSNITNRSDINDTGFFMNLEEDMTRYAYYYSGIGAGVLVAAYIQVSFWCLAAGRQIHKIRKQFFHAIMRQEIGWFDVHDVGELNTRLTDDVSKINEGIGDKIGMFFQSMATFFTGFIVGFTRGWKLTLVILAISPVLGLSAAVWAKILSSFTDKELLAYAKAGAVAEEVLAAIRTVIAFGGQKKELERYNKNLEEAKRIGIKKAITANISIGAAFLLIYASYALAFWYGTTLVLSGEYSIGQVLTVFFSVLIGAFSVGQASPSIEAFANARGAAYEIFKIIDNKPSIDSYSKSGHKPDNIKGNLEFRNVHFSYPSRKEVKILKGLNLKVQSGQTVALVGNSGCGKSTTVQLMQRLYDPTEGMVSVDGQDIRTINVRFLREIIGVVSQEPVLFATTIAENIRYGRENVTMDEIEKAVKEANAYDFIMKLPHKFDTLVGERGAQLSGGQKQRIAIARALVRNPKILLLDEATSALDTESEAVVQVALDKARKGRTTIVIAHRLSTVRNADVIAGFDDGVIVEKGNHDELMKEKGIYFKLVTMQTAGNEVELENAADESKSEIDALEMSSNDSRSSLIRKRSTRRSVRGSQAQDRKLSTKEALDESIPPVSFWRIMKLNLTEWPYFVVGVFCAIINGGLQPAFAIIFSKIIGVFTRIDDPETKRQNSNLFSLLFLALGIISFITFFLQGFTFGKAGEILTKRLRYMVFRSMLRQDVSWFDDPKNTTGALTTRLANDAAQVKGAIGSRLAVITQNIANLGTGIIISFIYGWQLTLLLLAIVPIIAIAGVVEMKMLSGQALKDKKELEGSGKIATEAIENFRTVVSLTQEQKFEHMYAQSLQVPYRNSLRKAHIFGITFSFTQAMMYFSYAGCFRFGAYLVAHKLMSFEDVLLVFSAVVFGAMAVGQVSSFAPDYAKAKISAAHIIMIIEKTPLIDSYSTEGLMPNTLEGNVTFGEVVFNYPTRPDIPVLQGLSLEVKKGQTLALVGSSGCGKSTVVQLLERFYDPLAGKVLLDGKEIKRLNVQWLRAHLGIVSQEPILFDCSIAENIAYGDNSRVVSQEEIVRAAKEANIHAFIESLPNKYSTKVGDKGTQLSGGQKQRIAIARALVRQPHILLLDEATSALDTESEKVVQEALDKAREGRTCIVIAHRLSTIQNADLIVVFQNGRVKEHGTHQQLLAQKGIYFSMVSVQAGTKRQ

Regarding `CN(C)C(=O)C(CCN1CCC(O)(c2ccc(Cl)cc2)CC1)(c1ccccc1)c1ccccc1` [Lop., loperamide, reference compound], the “Papp (B → A)” value in data set [1] is recorded as 25.70 ± 0.35 10^−6 cm/s. In data set [1] (dog, MDCK-MDR1, read-out: Efflux Ratio), the efflux ratio at 120 min was 128. Also, the Papp A→B at 120 min in data set [1] (dog, MDCK-MDR1, read-out: Papp (A → B)) turned out to be 0.2 ± 0.06 ×10⁻⁶ cm/s.

`O=C1CC(=O)CC(C2(Oc3cc(C(F)(F)F)cc(C(F)(F)F)c3)CCC2)C1` [Compound 21, 5-(1-(3,5-bis(trifluoromethyl)phenoxy)cyclobutyl)cyclohexane-1,3-dione]: in data set [2], the concentration for a half-maximal effect (EC50) was determined as 5.37 ± 1.03 µM and the “loss of potency relative to NU-9” value is > 2 fold. For the same molecule, in data set [3] (PAMPA-BBB), the “Log Pe” value was −4.77. In data set [3], the Papp at 18 h, 250 μM was 16.8 ± 0.54 ×10⁻⁶ cm/s.

Take `O=C1CC(=O)CC(c2cc(C(F)(F)F)cc(C(F)(F)F)c2)C1` [Compound 2]: the EC50 in data set [4] is 0.7 µM. Further, the “activity in cortical neuron protection assays” value in data set [5] was “inactive”.

Take `CC1=NN(c2ccccc2)C(=O)C1` [Edaravone, edaravone, reference compound]: the Pe in data set [3] (PAMPA-BBB, 250 μM, PBS pH 7.5, 25 °C, 18 h) is on record as 17.43 ± 3.20 10^−6 cm/s. In addition, the “Log Pe” value in data set [3] (PAMPA-BBB) was −4.76.

Turning to `O=C1CC(=O)CC(C(O)Cc2cc(C(F)(F)F)cc(C(F)(F)F)c2)C1` (stereo not shown) [Compound 4, 5-(2-(3,5-Bis(trifluoromethyl)phenyl)-1-hydroxyethyl)cyclohexane-1,3-dione], in data set [2], a half-maximal effect (EC50) was put at 7.89 ± 1.88 µM and the “loss of potency relative to NU-9” value is on record as 3 fold. Also, the “Log Pe” value in data set [3] (PAMPA-BBB) is −6.61. Moreover, in data set [3], the apparent permeability coefficient (Papp) at 18 h, 250 μM turned out to be 0.25 ± 0.01 ×10⁻⁶ cm/s.

On to `O=C1CC(=O)CC(c2ccc(F)cc2)C1` [Compound 1], for which, in data set [4], the EC50 is 0.8 µM.
